Reference: the supplement of paper PMC10307832

Key:
Assay in all cases: relative viability (nuclei count vs DMSO), 5 days (fraction); higher = more cells survive
[1] = compound: CC[C@@H](C)CNCC(=O)N1CCC2=C([C@@H]1COC3=CC=CC(=C3)C)C=CS2 [RU-SKI 43] + CC(=O)Nc1cccc(-n2c(=O)n(C3CC3)c(=O)c3c(Nc4ccc(I)cc4F)n(C)c(=O)c(C)c32)c1 [Trametinib] (partner 0.02 µM)
Procedure, shortened: (§1)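 Relative viability equals treated-well nuclei counts divided by vehicle-well nuclei counts. Counts came from 4× images of lung cancer cell lines grown in 1536-well plates for 5 days after pin-tool dosing on the day after seeding. Dosing used one drug alone or a fixed anchor-drug dose plus five library-drug doses (not always all listed) in √10 steps, and values are medians of duplicate plates.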

[2] = compound: Cn1cc(-c2cnc3ccc4ccc(CS(=O)(=O)NCc5ccccn5)cc4c(=O)c3c2)cn1 [MK-8033] + COc1cc2c(Oc3ccc(NC(=O)C4(C(=O)Nc5ccc(F)cc5)CC4)cc3F)ccnc2cc1OCCCN1CCOCC1 [Foretinib] (partner 0.25 µM)
Procedure, shortened: as §1

[3] = compound: CC[C@@H](C)CNCC(=O)N1CCC2=C([C@@H]1COC3=CC=CC(=C3)C)C=CS2 [RU-SKI 43] + COc1cc2c(Oc3ccc(NC(=O)C4(C(=O)Nc5ccc(F)cc5)CC4)cc3F)ccnc2cc1OCCCN1CCOCC1 [Foretinib] (partner 0.25 µM)
Procedure, shortened: as §1

[4] = compound: CC[C@@H](C)CNCC(=O)N1CCC2=C([C@@H]1COC3=CC=CC(=C3)C)C=CS2 [RU-SKI 43] + Cc1cc(Nc2cc(N3CCN(C)CC3)nc(Sc3ccc(NC(=O)C4CC4)cc3)n2)n[nH]1 [Tozasertib] (partner 0.1 µM)
Procedure, shortened: as §1

Cell Line | relative viability ([1]; first compound 0.1 µM) | relative viability ([1]; first compound 0.3162 µM) | relative viability ([1]; first compound 1 µM) | relative viability ([1]; first compound 3.162 µM) | relative viability ([1]; first compound 10 µM) | relative viability ([2]; first compound 0.02 µM) | relative viability ([2]; first compound 0.06325 µM) | relative viability ([2]; first compound 0.2 µM) | relative viability ([2]; first compound 0.6325 µM) | relative viability ([2]; first compound 2 µM) | relative viability ([3]; first compound 0.1 µM) | relative viability ([3]; first compound 0.3162 µM) | relative viability ([3]; first compound 1 µM) | relative viability ([3]; first compound 3.162 µM) | relative viability ([3]; first compound 10 µM) | relative viability ([4]; first compound 0.1 µM) | relative viability ([4]; first compound 0.3162 µM) | relative viability ([4]; first compound 1 µM) | relative viability ([4]; first compound 3.162 µM) | relative viability ([4]; first compound 10 µM)
NCI-H2228 | 0.37 | 0.55 | 0.466 | 0.396 | 0.306 | 0.96 | 0.806 | 0.673 | 0.721 | 0.749 | 0.769 | 0.988 | 0.879 | 0.863 | 0.726 | 0.256 | 0.264 | 0.184 | 0.249 | 0.255
NCI-H460 | 0.224 | 0.2 | 0.141 | 0.197 | 0.0732 | 1.02 | 0.961 | 0.947 | 1.02 | 1.01 | 0.923 | 1.16 | 1.09 | 1.13 | 0.97 | 0.545 | 0.4 | 0.544 | 0.504 | 0.274
NCI-H522 | 0.862 | 0.723 | 0.675 | 0.883 | 0.715 | – | – | – | – | – | – | – | – | – | – | 0.566 | 0.544 | 0.581 | 0.537 | 0.524
NCI-H1703 | – | – | – | – | – | 0.316 | 0.393 | 0.351 | 0.32 | 0.337 | 0.388 | 0.33 | 0.297 | 0.337 | 0.295 | – | – | – | – | –
NCI-H1793 | 0.439 | 0.386 | 0.435 | 0.473 | 0.479 | 0.696 | 0.515 | 0.615 | 0.574 | 0.784 | 0.602 | 0.68 | 0.738 | 0.762 | 0.502 | 0.333 | 0.321 | 0.344 | 0.324 | 0.281
NCI-H596 | 0.775 | 0.883 | 0.858 | 0.793 | 0.717 | 0.763 | 0.733 | 0.957 | 0.477 | 0.886 | 0.955 | 0.676 | 0.886 | 0.989 | 0.931 | 0.996 | 0.849 | 0.869 | 0.954 | 0.849
NCI-H1648 | 0.43 | 0.459 | 0.715 | 0.568 | 0.378 | – | – | – | – | – | – | – | – | – | – | – | – | 0.428 | 0.484 | 0.4
NCI-H1299 | – | – | – | – | – | 1.09 | 1.08 | 1.02 | 1.13 | 1.06 | 1.08 | 1.1 | 1.14 | 1.12 | 1.09 | – | – | – | – | –
NCI-H1792 | 0.36 | 0.53 | 0.486 | 0.327 | 0.362 | – | – | – | – | – | – | – | – | – | – | – | – | – | – | –
IA-LM | – | – | – | – | – | 0.989 | 1.03 | 1.17 | 1.15 | 1.12 | 1.25 | 1.28 | 1.49 | 1.18 | 1.13 | – | – | – | – | –
ABC-1 | – | – | – | – | – | 1.03 | 0.97 | 0.906 | 0.985 | 1.11 | 1.04 | 1.05 | 1.04 | 1.06 | 0.754 | 0.16 | 0.172 | 0.18 | 0.166 | 0.185
A549 | – | – | – | – | – | 0.962 | 0.853 | 0.892 | 0.985 | 0.945 | 1.12 | 1.1 | 1.06 | 0.93 | 0.852 | – | – | – | – | –
